Patent US20070292488A1, “METHOD FOR TREATMENT OF WOUND TREATMENT USING AGANOCIDES” (priority 2006, published 2007)

Assays:
[1] = system: human secondary intention wound; test: Vacuum-assisted wound treatment combined with intermittent instillation of aganocide (HOCl) on a human wound; format: in vivo; conditions: 0.45% NaCl, pH about 4
Protocol: A human secondary intention wound approximately 3-4 cm in diameter is fitted with a polyurethane sponge, pore size 400-600 microns cut to the size of the wound and twice the thickness of the wound and covered with an adhesive film, per instructions on the vacuum system. The outlet is connected to an IV bag (500 ml) with 0.01% HOCl, 0.45% NaCl, and pH of about 4 and is elevated to between 0.1 and 1 meter above the wound. A 1-cm hole is punctured in the adhesive film, and a second adhesive film is used to cover the hole, with the second outlet connected to the vacuum pump.
Each cycle consists of three phases: a 2-hour pumping phase when the vacuum (125 mm Hg negative pressure) is connected and the IV bag is disconnected; […] and the IV bag is connected and the aganocide is applied to the wound; […] IV bag are disconnected.
Each treatment has about 24 cycles and starts with a pumping phase and proceeds for 48 hours. When the treatment is completed, the dressings are changed and the treatment is repeated until full granulation has been promoted and the granulation tissue is within the level of the skin, approximately 30 to 100 days, depending on the depth of the original wound. […]

test bacteria = test: Comparison of hypochlorous acid with Dakin's solution (antimicrobial activity, therapeutic index, time kill); conditions: in the regimen described
Excerpt: “Time kill” refers to an in vitro measure of how fast a given antimicrobial can kill test bacteria.
This means that the time to wound closure may be reduced using hypochlorous acid.

OCl [hypochlorous acid]
wound healing results of combination regimen compared with vacuum alone or aganocide alone ([1]; Example 1: 0.01% HOCl, 1 second instilling, 15 second holding): superior | wound healing results of combination regimen compared with vacuum alone or aganocide alone ([1]; Example 2: 0.01% HOCl, 5 second instilling, 5 minute holding): superior | antimicrobial activity in comparison with Dakin's solution (test bacteria): improved | therapeutic index in comparison with Dakin's solution (test bacteria): improved | time kill in comparison with Dakin's solution (test bacteria): improved
